Source: US7091183B1 (Boston Medical Center Corporation, priority 1996, dated 2006)
“And” between values parts separate entries of the source, which are not always exact repeats. Identical values can stand only once. Like-named read-outs stand apart in the source and are kept apart here. One block for each compound: values may come before it. Where no end group is shown, it is not given here.

How the values were obtained:
rat GIP receptor [1] = target: T1, rat GIP receptor (Rattus norvegicus, UniProt P43219); experiment: cAMP-dependent β-galactosidase production in LGIPR2 cells (agonist activity); type: cell-based; details: for β-gal level stimulated by peptide alone: FIG. 1B; for stimulation of cAMP-dependent β-galactosidase production (versus GIP (1–42) / above control levels): 10^−8 M peptide, 4 h
T1 construct: expressed in transfected cells; host or cells: L cells (LGIPR2), also carrying a VIP-promoter/lacZ cAMP reporter
T1 sequence (P43219 19-455): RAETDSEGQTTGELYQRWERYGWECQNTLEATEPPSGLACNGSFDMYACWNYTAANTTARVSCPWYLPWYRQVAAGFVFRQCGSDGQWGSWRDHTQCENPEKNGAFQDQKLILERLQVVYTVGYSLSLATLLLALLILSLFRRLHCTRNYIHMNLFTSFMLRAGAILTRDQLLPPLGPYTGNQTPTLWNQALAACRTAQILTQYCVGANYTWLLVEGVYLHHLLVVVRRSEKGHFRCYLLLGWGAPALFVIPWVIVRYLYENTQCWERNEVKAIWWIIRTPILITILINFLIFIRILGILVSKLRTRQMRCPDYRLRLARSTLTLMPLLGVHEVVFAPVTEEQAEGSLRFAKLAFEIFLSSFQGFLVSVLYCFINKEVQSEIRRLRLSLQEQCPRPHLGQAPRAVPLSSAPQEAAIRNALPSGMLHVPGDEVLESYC
Description: LGIPR2 cells are stably transfected with a cAMP-dependent promoter from the VIP gene fused to the bacterial lac Z gene. When intracellular cAMP increases within these cells, lac Z gene transcription is activated, resulting in the accumulation of its product, β-galactosidase. The measurement of β-galactosidase in this system provided a convenient, inexpensive, and nonradioactive method for detecting changes in the levels of intracellular cAMP. […] The medium was then removed and wells rinsed once with phosphate-buffered saline (PBS). The plates were then blotted briefly and frozen overnight at −70° C., and, after the addition of chlorophenol red-β-D-galactopyranoside, accumulated β-galactosidase was detected using a calorimetric assay, as described previously (Usdin, et al., 1993, Endocrinology, 133:2861–2870). […] Natl. Acad. Sci. USA, 90:1992–1996).

fasted anesthetized rats = experiment: Intravenous infusion of peptides in fasting anesthetized rats, plasma insulin; type: in vivo, rat; details: for plasma insulin level after infusion: 30 min i.v. infusion
GIP receptor [2] = target: T2, GIP receptor (Mus musculus, UniProt Q0P543); details: βTC3 cells; cited from earlier work
T2 construct: host or cells: βTC3 cells (endogenous receptor)
T2 sequence (Q0P543 19-460): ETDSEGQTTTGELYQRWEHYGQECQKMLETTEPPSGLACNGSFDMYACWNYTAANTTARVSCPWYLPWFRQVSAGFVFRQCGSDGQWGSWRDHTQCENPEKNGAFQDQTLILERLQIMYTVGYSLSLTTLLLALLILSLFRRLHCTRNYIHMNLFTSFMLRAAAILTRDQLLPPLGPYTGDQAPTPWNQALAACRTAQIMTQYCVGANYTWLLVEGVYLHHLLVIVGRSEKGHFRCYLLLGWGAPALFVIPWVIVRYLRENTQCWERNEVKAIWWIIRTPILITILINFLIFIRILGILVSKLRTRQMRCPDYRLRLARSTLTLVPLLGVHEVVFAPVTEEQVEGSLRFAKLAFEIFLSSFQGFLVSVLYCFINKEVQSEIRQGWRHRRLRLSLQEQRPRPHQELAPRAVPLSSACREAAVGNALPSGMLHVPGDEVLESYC

rat GIP receptor [3] = target: T1, rat GIP receptor; experiment: Inhibition of GIP (1–42)-stimulated cAMP-dependent β-galactosidase production in LGIPR2 cells; type: cell-based; details: 10^−8 M GIP (1–42) plus fragment at 10^−8 M or 10^−6 M, 4 h
Method: LGIPR2 cells are stably transfected with a cAMP-dependent promoter from the VIP gene fused to the bacterial lac Z gene. When intracellular cAMP increases within these cells, lac Z gene transcription is activated, resulting in the accumulation of its product, β-galactosidase. The measurement of β-galactosidase in this system provided a convenient, inexpensive, and nonradioactive method for detecting changes in the levels of intracellular cAMP.
LGIPR2 cells were grown in Dulbecco's Modified Eagle's Medium (DMEM) containing 4.5 g/L of glucose and 10% fetal calf serum. For each assay, 10^5 cells/well were seeded onto 24-well plates. After incubation overnight, peptides were added in various concentrations to the wells in the absence of 3-isobutyl-methylxanthine (IBMX) for 4 h, at which time maximal stimulation of β-galactosidase was determined. The medium was then removed and wells rinsed once with phosphate-buffered saline (PBS). The plates were then blotted briefly and frozen overnight at −70° C., and, after the addition of chlorophenol red-β-D-galactopyranoside, accumulated β-galactosidase was detected using a calorimetric assay, as described previously (Usdin, et al., 1993, Endocrinology, 133:2861–2870).
Values are expressed as the mean±SE of quadruplicate measurements.

[4] = in vivo; cited from earlier work
rats = details: exendin-treated rats, cited from earlier work
GIP receptor [5] = details: cited from earlier work

Compound: CC[C@H](C)[C@H](NC(=O)[C@H](CO)NC(=O)[C@H](Cc1ccc(O)cc1)NC(=O)[C@H](CC(=O)O)NC(=O)[C@H](CO)NC(=O)[C@@H](NC(=O)[C@H](Cc1ccccc1)NC(=O)[C@@H](NC(=O)CNC(=O)[C@H](CCC(=O)O)NC(=O)[C@H](C)NC(=O)[C@@H](N)Cc1ccc(O)cc1)[C@@H](C)O)[C@@H](C)CC)C(=O)N[C@@H](C)C(=O)N[C@@H](CCSC)C(=O)N[C@@H](CC(=O)O)C(=O)N[C@@H](CCCCN)C(=O)N[C@H](C(=O)N[C@@H](CCCNC(=N)N)C(=O)N[C@@H](CCC(N)=O)C(=O)N[C@@H](CCC(N)=O)C(=O)N[C@@H](CC(=O)O)C(=O)N[C@@H](Cc1ccccc1)C(=O)N[C@H](C(=O)N[C@@H](CC(N)=O)C(=O)N[C@@H](Cc1c[nH]c2ccccc12)C(=O)N[C@@H](CC(C)C)C(=O)N[C@@H](CC(C)C)C(=O)N[C@@H](C)C(=O)N[C@@H](CCC(N)=O)C(=O)N[C@@H](CCCCN)C(=O)NCC(=O)N[C@@H](CCCCN)C(=O)N[C@@H](CCCCN)C(=O)N[C@@H](CC(N)=O)C(=O)N[C@@H](CC(=O)O)C(=O)N[C@@H](Cc1c[nH]c2ccccc12)C(=O)N[C@@H](CCCCN)C(=O)N[C@@H](Cc1c[nH]cn1)C(=O)N[C@@H](CC(N)=O)C(=O)N[C@@H](CC(C)C)C(=O)N[C@H](C(=O)N[C@@H](CCC(N)=O)C(=O)O)[C@@H](C)O)C(C)C)[C@@H](C)CC [GIP, glucose-dependent insulinotropic polypeptide]
β-gal level stimulated by peptide alone (rat GIP receptor [1]): 0.95±0.04 O.D.
concentration giving maximum effect on β-galactosidase production (rat GIP receptor [1]; at 4 h): 10^−8 M
plasma insulin level after infusion (fasted anesthetized rats; GIP 0.5 nmol/kg): 43.5±2.7 μIU/ml
plasma insulin level after infusion (fasted anesthetized rats; GIP 1.0 nmol/kg): 61.6±4.2 μIU/ml
plasma insulin level after infusion (fasted anesthetized rats; GIP 1.5 nmol/kg): 72.4±3.5 μIU/ml

Compound: CC[C@H](C)[C@H](NC(=O)[C@H](Cc1ccccc1)NC(=O)[C@H](CCC(=O)O)NC(=O)[C@H](CCCCN)NC(=O)[C@H](C)NC(=O)[C@H](C)NC(=O)[C@H](CCC(N)=O)NC(=O)CNC(=O)[C@H](CCC(=O)O)NC(=O)[C@H](CC(C)C)NC(=O)[C@H](Cc1ccc(O)cc1)NC(=O)[C@H](CO)NC(=O)[C@H](CO)NC(=O)[C@@H](NC(=O)[C@H](CC(=O)O)NC(=O)[C@H](CO)NC(=O)[C@@H](NC(=O)[C@H](Cc1ccccc1)NC(=O)[C@@H](NC(=O)CNC(=O)[C@H](CCC(=O)O)NC(=O)[C@H](C)NC(=O)[C@@H](N)Cc1c[nH]cn1)[C@@H](C)O)[C@@H](C)O)C(C)C)C(=O)N[C@@H](C)C(=O)N[C@@H](Cc1c[nH]c2ccccc12)C(=O)N[C@@H](CC(C)C)C(=O)N[C@H](C(=O)N[C@@H](CCCCN)C(=O)NCC(=O)N[C@@H](CCCNC(=N)N)C(N)=O)C(C)C [GLP-1, glucagon like peptide-1 (7–36)]
plasma insulin level at 30 min (fasted anesthetized rats; GLP-1 0.4 nmol/kg infusion): 50.3±3.7 μIU/ml

Compound: N=C(N)NCCC[C@H](N)C(=O)O [arginine]
plasma insulin level at 30 min (fasted anesthetized rats; arginine 375 mg/kg infusion): 69.7±5.8 μIU/ml

Compound: GIP (16–30)-NH2 (KIRQQDFVNWLLAQK-NH2; listed as Rattus norvegicus)
stimulation of cAMP-dependent β-galactosidase production (versus GIP (1–42) / above control levels) (rat GIP receptor [1]): did not mimic GIP and none
antagonism of the cAMP stimulatory effect of GIP (1–42) (rat GIP receptor [3]): neither did they inhibit GIP-dependent effects

Compound: GIP (21–30)-NH2 (DFVNWLLAQK-NH2)
stimulation of cAMP-dependent β-galactosidase production (versus GIP (1–42) / above control levels) (rat GIP receptor [1]): none

Compound: exendin (9–39)
reduction of insulin release following intraduodenal glucose infusion [4]: 70%
plasma glucose level (rats; increased from 7.5): 8.7 mmol/L
reduction of postprandial insulin release (rats): 50% and 48%
reduction of postprandial insulin release (rats; listed as exendin): ~50%
GIP binding to its receptor (GIP receptor [5]): displaced GIP binding from its receptor
cAMP generation in response to GIP stimulation (GIP receptor [5]): inhibits cAMP generation

Further lines, with some results ahead:

stimulation of cAMP-dependent β-galactosidase production (versus GIP (1–42) / above control levels) (rat GIP receptor [1]): nearly equipotent
Compound: GIP (1–30)-NH2 (YAEGTFISDYSIAMDKIRQQDFVNWLLAQK-NH2; listed as Rattus norvegicus)
binding of GIP (1–42) to the GIP receptor (GIP receptor [2]): competitively inhibited binding

stimulation of cAMP-dependent β-galactosidase production (versus GIP (1–42) / above control levels) (rat GIP receptor [1]): partial agonist activity
β-gal level stimulated by peptide alone (rat GIP receptor [1]): 0.39 O.D.
antagonism of the cAMP stimulatory effect of GIP (1–42) (rat GIP receptor [3]): an antagonist, albeit a weak one
Compound: GIP (10–30)-NH2 (YSIAMDKIRQQDFVNWLLAQK-NH2; listed as Rattus norvegicus)

stimulation of cAMP-dependent β-galactosidase production (versus GIP (1–42) / above control levels) (rat GIP receptor [1]): none
Compound: GIP (31–44) (GKKNDWKHNLTQRE; listed as Rattus norvegicus)
